What was measured:
[1] = test system: human prostate cancer cell line LNCaP xenografts; test: LNCaP xenograft growth inhibition in nude mice; format: in vivo; conditions: for TGI (Tumor Growth Inhibition): TGI=ΔT/ΔC×100%
Description: (§1) All the procedures related to animal handling, care, and the treatment in the study were performed following guidelines approved by an Institutional Animal Care and Use Committee (IACUC) of Crown Bioscience, Inc. (Santa Clara, Calif., USA, a contract research organization we hired) based on the guidance of the Association for Assessment and Accreditation of Laboratory Animal Care (AAALAC). Animals were checked for any effects of tumor growth and drug treatment on normal behavior such as mobility, food and water consumption, body weight gain/loss (gross body weights were measured twice weekly), eye/hair matting, and any other abnormal effect. Death and observed clinical signs were recorded on the basis of the number of animals within each group. Individual animals with a tumor volume exceeding 3,000 mm^3 or animals of a group with a mean tumor volume exceeding 2,000 mm^3 were euthanized. In addition, animals showing signs of severe distress and/or pain, dropping body weight more than 20% from that at the start of treatment, or losing the capability of accessing adequate food or water were humanely sacrificed.
The human prostate cancer cell line LNCaP (ATCC, American Type Culture Collection, Manassas, Va., USA) were maintained in vitro as monolayer culture in RPMI-1640 medium supplemented with 10% fetal bovine serum (FBS), 100 U/ml penicillin, 100 μg/ml streptomycin, and 2 mM L-glutamine at 37° C. in an atmosphere of 5% CO2 in air. The tumor cells were routinely subcultured twice a week. The cells growing in an exponential phase were harvested and counted for tumor inoculation.
Each mouse was inoculated subcutaneously at the right flank with the LNCaP cells (1×10^7) in 0.1 ml of PBS for tumor development. When a mean tumor volume reached around 150 mm^3, the tumor-bearing mice were divided into homogeneous blocks based on their tumor volumes followed by a randomization of mice in each block into treatment groups (thus minimizing variations in tumor response to treatments due to the differential in initial mean tumor volumes). Each treatment group was consisted of 8 tumor-bearing mice. Vehicle (DMSO) or ITE in the vehicle at specified doses were administered to the mice by either i.p. (intraperitoneal) or p.o. (oral) injection once or twice daily for 28 continuous days as indicated.
Tumor volume was measured twice weekly in two dimensions using a caliper and the volume was calculated with a formula of: V=0.5 a×b^2, where a and b are the long and short diameter (in mm) of a tumor, respectively. The tumor volume was then used for calculations of both TGI (Tumor Growth Inhibition) and TGD (Tumor Growth Delay). The TGI was determined by: TGI=ΔT/ΔC×100%, where ΔT was a difference between the mean tumor volume at a specified day of observation and that at the day treatment starts (day 1) for a drug treated group whereas ΔC was the same difference measured for the control group. The TGD was calculated as: TGD=T−C, where T was the time (in days) required for tumors in a drug treated group to reach a predetermined mean tumor volume and C the time (in days) in the control group to reach the same volume. A tumor weight was derived by equating 1,000 mm^3 in volume to 1,000 mg in weight. A net body weight was then derived by subtracting a tumor weight from a corresponding gross body weight with the tumor.
Summary statistics, including mean and the standard error of the mean (SEM), are provided for the tumor volume of each group at each time point. Statistical analysis of difference in tumor volume among groups was conducted on a data set either at the best therapeutic time point or at the final dosing day as indicated. The tumor volume data were log-transformed and evaluated using a one-way ANOVA followed by Tukey's test when significance was observed. All data were analyzed using SPSS 16.0 and p<0.05 was considered to be statistically significant.

[2] = test system: human breast cancer cell line MCF-7 xenografts; test: MCF-7 xenograft growth inhibition in nude mice; format: in vivo; conditions: 20 mg/kg i.p. once daily
Description: as §1, with “In addition, animals showing signs of severe distress and/or pain, dropping body weight more than 20% from that at the start of treatment, or losing the capability of accessing adequate food or water were humanely sacrificed.” left out
Tumor volume was measured twice weekly in two dimensions using a caliper and the volume was calculated with a formula of: V=0.5 a×b^2, where a and b are the long and short diameter (in mm) of a tumor, respectively. […] The TGD was calculated as: TGD=T−C, where T was the time (in days) required for tumors in a drug treated group to reach a predetermined mean tumor volume and C the time (in days) in the control group to reach the same volume. […]

For COC(=O)c1csc(C(=O)c2c[nH]c3ccccc23)n1 [ITE, 2-(1′H-indole-3′-carbonyl)-thiazole-4-carboxylic acid methyl ester], the “TGD (Tumor Growth Delay)” value ([1]; 20 mg/kg b.w. i.p. once daily, at a tumor volume of 1,000 mm^3) was 8 days, the “TGI (Tumor Growth Inhibition)” value ([1]; 20 mg/kg b.w. i.p. once daily, day 28) was 64% and the “toxic response judged from body weight changes of tumor-bearing mice” value ([1]; 0.1-40 mg/kg b.w. i.p. every 12 hr for 28 days) was “did not seem to provoke significant toxic response”. The “TGI (Tumor Growth Inhibition)” value ([1]; ITE 0.1 mg/kg b.w. i.p. every 12 hr for 28 days, DMSO, day 28) was 74%, the “TGI (Tumor Growth Inhibition)” value ([1]; ITE 1 mg/kg b.w. i.p. every 12 hr for 28 days, day 28) was 52% and the “TGD (Tumor Growth Delay)” value ([1]; ITE 1 mg/kg b.w. i.p. every 12 hr, at a tumor size of 600 mm^3) was 3 days. The “TGI (Tumor Growth Inhibition)” value ([1]; ITE 10 mg/kg b.w. i.p. every 12 hr for 28 days, day 28) was 31%, the “TGD (Tumor Growth Delay)” value ([1]; ITE 10 mg/kg b.w. i.p. every 12 hr, at a tumor size of 600 mm^3) was 10 days and the “TGI (Tumor Growth Inhibition)” value ([1]; ITE 20 mg/kg b.w. i.p. every 12 hr for 28 days, day 28) was 26%. For the same molecule, the “TGD (Tumor Growth Delay)” value ([1]; ITE 20 mg/kg b.w. i.p. every 12 hr, at a tumor size of 600 mm^3) was 12 days, the “TGI (Tumor Growth Inhibition)” value ([1]; ITE 40 mg/kg b.w. i.p. every 12 hr for 28 days, day 28) was 22% and the “TGD (Tumor Growth Delay)” value ([1]; ITE 40 mg/kg b.w. i.p. every 12 hr, at a tumor size of 600 mm^3) was 16 days. For the same molecule, the “TGI (Tumor Growth Inhibition)” value ([1]; ITE 80 mg/kg p.o. daily, day 24) was 46%, the “TGI (Tumor Growth Inhibition)” value ([1]; ITE 80 mg/kg twice daily i.p., day 28) was 12% and the “TGI (Tumor Growth Inhibition)” value ([1]; ITE 80 mg/kg twice daily i.p., the last day) was 16%. For the same molecule, the “TGD (Tumor Growth Delay)” value ([2]; at a tumor volume of 500 mm^3) was 3 days and the “TGI (Tumor Growth Inhibition)” value ([2]; day 19, TGI=ΔT/ΔC×100%) was 71%.

— patent US10632106B2, “Methods of cancer treatment with 2-(1′H-Indole-3′-carbonyl)-thiazole-4-carboxylic acid methyl ester” (Ariagen, Inc., priority 2009, dated 2020)
